Test results reported in patent publication US12070505B2, “Targeted peptide-drug conjugates” (priority 2021, dated 2024).

What was measured:
[1] = system: H9C2 cells; assay: Cytotoxicity, MTS assay, normal heart muscle cells (Example 1); conditions: 5 μM
Method: In Vitro Cytotoxicity Assay of Peptide-Drug Conjugates. The cytotoxicity of the compounds was determined by using human leukemia cell line (CCRF-CEM), human ovarian adenocarcinoma cells (SKOV-3) cells, kidney cell line (LLC-PK1), gastric adenocarcinoma cells (AGS), and heart/myocardium cells (H9C2) to evaluate the toxicity of the generated peptides according to a previously reported procedure (Rahman, A.; et al. Proc. Am. Assoc. Cancer Res. 26:2295-2299, 1985, which is incorporated herein by reference). In brief, CCRF-CEM cells were seeded at 50,000 cells in 0.1 mL per well in 98-well plates. In the case of other cell lines, the cells were seeded at 5,000 cells (0.1 mL per well in 96-well plates). The cells were seeded in medium (RPMI-1640 containing FBS (10%)), 24 h prior to the experiment. The compounds at different concentrations (10-50 μM) were added to each well in triplicate and incubated for 24 and 72 h at 37° C. in a humidified atmosphere of 5% CO2. Dox (5 μM) was used as a positive control, while water and cell culture medium were used as negative controls. The compounds were dissolved in water; water was used as a negative control to normalize the data. After the incubation period, MTS reagent (20 μL) was added to each well. The incubation was continued for 2 h. Cell viability was then determined by determination of the fluorescence intensity at 490 nm using a SpectraMax M2 microplate spectrophotometer.

[2] = system: MDA-231WT cells; assay: LC50 by CCK-8 assay, wild-type cells; type: cell-based; conditions: MDA-231WT (wild type); FIG. 10: after 72 h
Method: Dox-resistant Cell Lines. Acquired resistance to Dox was induced in wild-type triple-negative breast cancer cell line MDA-MB-231 (MDA-231WT) as described before (Aliabadi, H. M.; et al. J. Control. Release 172:219-228, 2013, which is incorporated herein by reference). Briefly, MDA-231WT cells were exposed to Dox at an initial concentration of 0.05 μg/mL for one week or three consecutive expansions (whichever came later). […] Resistance induction was confirmed via calculation of LC50 following a sigmoidal effect model explained elsewhere (Bousoik, E.; et al. Front. Oncol. 9:1070, 2019, which is incorporated herein by reference) and determination of P-glycoprotein (P-gp) expression.
The cytotoxicity of the peptide-Dox conjugate in resistant triple-negative breast cancer and uterine sarcoma cell lines (MDA-231R, MDA-231WT, and MES-SA/MX2) was evaluated by a Cell Counting 8 (CCK8) KIT. The peptide-Dox conjugate was added to the cells in triplicate with different concentrations (0-40 μM). Cells were incubated at 37° C. and 5% CO2 for 24 h. After this incubation period, 10 μL of CCK8 reagent was added to each well, and plates were incubated at the same conditions for 2 h. The absorbance of each well was determined at 450 nm using the SpectraMAX M5 microplate reader. After subtracting the signal from blank wells that contain medium without cells in the plate with CCK-8 solution added, the results were normalized to cells treated with normal saline (considered as 100%)
Efficiency in Dox-Resistant Cells. In order to compare the cytotoxic effect of free and peptide-conjugated Dox in Dox-resistant cells, MDA-231WT (as a Dox-sensitive cell line as control) and MDA-231R and MES-SA/MX2 cells as Dox-resistant cells were exposed to a wide range of Dox (or Dox-equivalent for the peptide-conjugated drug) concentrations (0.05-40 μM). Cells were seeded in 96-well plates with approximately 50% confluency and were incubated for 24 h in 37° C. and 5% CO2. […] The cell viability was determined after this incubation period using the CCK-8 assay, as explained above. […]

[3] = system: SK-OV-3 cells; assay: MTS cytotoxicity assay of [(WR)8WKβA]-Dox, SK-OV-3; conditions: 5 μM, 72 h
Method: (§1) Cytotoxic activity of the synthesized conjugate and noncovalent mixtures of cyclic [WR]9+Dox was determined in SK-OV-3, MDA-MB-231, MCF-7, MES-SA/MX2, and H9C2 cells. […] An appropriate growth medium was used for each cell line (for SK-OV-3: McCoy's […] with L-glutamine containing fetal bovine serum (FBS) (10%) and penicillin or streptomycin (1%); for MDA-MB-231 and MCF-7 cells: DMEM/F12 (1:1) (1×) with L-Glutamine and 15 mM HEPES containing FBS (10%) and penicillin or streptomycin (1%), and for MES-SA/MX2 and H9C2 cells: Minimum Essential Medium Eagle with Earle's salts and sodium bicarbonate, without L-glutamine containing FBS (10%), and penicillin or streptomycin (1%)). The cells were seeded in a complete growth medium 24 h prior to the experiment. […] The incubation was continued for 3 h.

[4] = system: H9C2 cells; assay: Fluorescence/confocal microscopy uptake in heart cells (Example 1); type: cell-based, rat; conditions: 5 μM
Method: Fluorescence and Confocal Microscopy. CCRF-CEM, SKOV-3, and H9C2 cells were seeded with EMEM media overnight on coverslips in six-well plates. Then the medium was removed and washed with opti-MEM. The cells were treated with Dox and the peptide-Dox conjugate (5 μM) in opti-MEM for different time intervals (3, 24, and 72 h) at 37° C. After 3 h incubation, the media containing the compound were removed, followed by washing with PBS three times. Then coverslips were placed on a drop of mounting medium on a microscope slide with the cell-attached side facing down. Fluorescence microscopy and laser scanning confocal microscopy were carried out using a Keyence Microscope System and Nikon AIR system, respectively. The cells were imaged using rhodamine and phase contrast channels.
In a separate experiment, confocal microscopy was used as follows. (i) Internalization of [R5K]W7A-Dox conjugate vs. free Dox was determined in Dox-resistant MDA-MB-231 and ME5-SA/MX2 cells as compared to the wild-type MDA-MB-231 cells. The cellular internalization was evaluated in Dox-sensitive and -resistant cells to study the effect of overexpression of the MDR efflux proteins on the Dox internalization by the peptide conjugates. […] (ii) Internalization of Dox and [R5K]W7A-Dox was determined into normal heart muscle cells. […]

[5] = system: MDA-MB-231 cells; assay: MTS cytotoxicity assay of [(WR)8WKβA]-Dox, MDA-MB-231; conditions: 5 μM
Method: as §1

COc1cccc2c1C(=O)c1c(O)c3c(c(O)c1C2=O)C[C@@](O)(C(=O)CO)C[C@@H]3O[C@H]1C[C@H](N)[C@H](O)[C@H](C)O1 [Dox, doxorubicin, reference compound]
reduction of cell survival ([1]; H9C2, 24 h): 20% | reduction of cell survival ([1]; H9C2, 72 h): 44% | reduction of cell survival ([1]; H9C2, 96 h): 44% | reduction of viability of heart cells ([1]; H9C2, time not stated): 44% | Cell Viability (%) after 24 h ([1]; normal heart H9C2): 80 ± 2% | Cell Viability (%) after 72 h ([1]; normal heart H9C2): 56 ± 3% | Cell Viability (%) after 96 h ([1]; normal heart H9C2): 56 ± 1% | CC50 [2]: 450 nM | reduction of cell viability / inhibition of proliferation [3]: 35% | uptake in heart cells (microscopy, words) [4]: significant uptake | cell viability ([5]; 24 h): 79% | cell viability ([5]; 72 h): 37% | inhibition of cell viability/proliferation ([5]; 72 h): 63%
